In patent US20240287138A1, “CYCLIC PEPTIDES FOR INHIBITING TNF RECEPTOR 1 ACTIVITY” (Merck Sharp & Dohme LLC, priority 2023, published 2024):
pIC50, pKd: −log10 of the molar value. Numbered stars: 1 amine (or outer) side, 2 acyl side, 3 side chain; on linkers, the order of the positions; unused ones are H or OH. Square brackets hold non-standard residues; d marks the D form. Peptide text beside a SMILES is read from it. * marks the point of attachment. Trp(βS-Me,7-OMe) = COc1cccc2c([C@H](C)[C@H](N)C(=O)O)c[nH]c12; Trp(1-CH2COOH) = N[C@@H](Cc1cn(CC(=O)O)c2ccccc12)C(=O)O; Phe(4-SO2NH2) = N[C@@H](Cc1ccc(S(N)(=O)=O)cc1)C(=O)O; Trp(7-CN) = N#Cc1cccc2c(C[C@H](N)C(=O)O)c[nH]c12; Trp(7-Cl) = N[C@@H](Cc1c[nH]c2c(Cl)cccc12)C(=O)O; Phe(4-CONH2) = NC(=O)c1ccc(C[C@H](N)C(=O)O)cc1; Phe(4-COOH) = N[C@@H](Cc1ccc(C(=O)O)cc1)C(=O)O; X30 = O=C([C@@H](N[*:1])[C@H](O)c1ccncc1)[*:2]; Trp(7-aza) = N[C@@H](Cc1c[nH]c2ncccc12)C(=O)O; X52 = C[C@@H](C(=O)[*:2])N(CCC(N)=O)[*:1]; Pip(5R-OH) = O=C(O)[C@@H]1CC[C@@H](O)CN1; X1 = O=C([C@@H]1CC[C@H](N[*:1])C1)[*:2]; AEF = NCCOc1ccc(C[C@H](N)C(=O)O)cc1; 4Pal = N[C@@H](Cc1ccncc1)C(=O)O; Ethyl(2-NMe3+) = C[N+](C)(C)CC*; NMeE = CN[C@@H](CCC(=O)O)C(=O)O; dHyp = O=C(O)[C@H]1C[C@H](O)CN1; αMeS = C[C@](N)(CO)C(=O)O; Carboxymethyl = O=C(O)C*; Nle = CCCC[C@H](N)C(=O)O; Sar = CNCC(=O)O

Key:
[1] = biological target: T1, TNFα-induced NF-κB signal transduction pathway (TNFR1 signaling) in THP-1 cells (Homo sapiens, UniProt P19438); assay: THP-1 Lucia NF-κB reporter cell assay, inhibition of TNFα-induced NF-κB signaling; type: cell-based; conditions: THP-1 NF-κB Lucia reporter cells, 10 ng/mL TNFα, 16-18 h, secreted luciferase; read-out: THP-1 IC50
T1 sequence (P19438 30-455): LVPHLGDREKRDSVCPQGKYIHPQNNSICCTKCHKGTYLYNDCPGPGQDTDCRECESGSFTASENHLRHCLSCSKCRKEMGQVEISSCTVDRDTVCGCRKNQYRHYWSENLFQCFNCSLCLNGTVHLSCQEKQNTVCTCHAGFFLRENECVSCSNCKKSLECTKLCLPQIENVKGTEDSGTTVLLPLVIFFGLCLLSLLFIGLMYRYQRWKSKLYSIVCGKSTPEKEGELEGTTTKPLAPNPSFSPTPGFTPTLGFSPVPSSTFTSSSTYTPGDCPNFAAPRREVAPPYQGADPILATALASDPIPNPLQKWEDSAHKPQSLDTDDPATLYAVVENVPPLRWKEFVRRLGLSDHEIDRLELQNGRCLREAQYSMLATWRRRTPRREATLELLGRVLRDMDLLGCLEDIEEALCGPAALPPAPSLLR
Procedure, shortened: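 Inhibition of TNFR1-driven NF-κB activation was measured as luminescence of secreted reporter luciferase following overnight (16-18 h) stimulation with 10 ng/mL TNFα.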

[2] = biological target: T2, human soluble TNFR1 (sTNFR1) (Homo sapiens, UniProt P19438); assay: Human sTNFR1-peptide displacement assay (LanthaScreen Eu TR-FRET binding assay)
T2 construct: made in house; host or cells: Sf21 (baculovirus)
T2 sequence (P19438 with tags, fused parts or gaps): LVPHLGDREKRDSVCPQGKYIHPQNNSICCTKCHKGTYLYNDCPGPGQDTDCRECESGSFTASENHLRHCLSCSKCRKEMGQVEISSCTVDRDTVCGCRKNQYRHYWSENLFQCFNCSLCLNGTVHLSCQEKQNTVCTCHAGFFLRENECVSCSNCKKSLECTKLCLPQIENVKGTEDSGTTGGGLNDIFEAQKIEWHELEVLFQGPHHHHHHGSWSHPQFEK
Procedure, shortened: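 Readout is the 665/615 nm TR-FRET ratio (Eu anti-His donor, streptavidin-Alexa647 acceptor), normalized to DMSO and saturating displacer, fit by Morrison-based five-parameter logistic for Kd^app. His-tagged sTNFR1 (1-211) prebound to 100 nM biotinylated peptide SEQ ID NO.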

Compound | pIC50 [1] | pKd [2]
CCCC[C@@H]1NC(=O)[C@@H]2CC[C@@H](C2)NC(=O)[C@H]([C@@H](C)c2c[nH]c3c(OC)cccc23)NC(=O)CN(C)C(=O)[C@H](Cc2ccc(C(N)=O)cc2)NC(=O)[C@H](Cc2ccc(C(N)=O)cc2)NC(=O)[C@](C)(CO)NC(=O)[C@H](Cc2c[nH]c3c(C#N)cccc23)NC(=O)[C@H]([C@H](O)c2ccncc2)NC(=O)[C@H](CC(N)=O)NC(=O)[C@H]2C[C@H](OCC(=O)O)CN2C(=O)[C@H](Cc2cn(CC(=O)O)c3ccccc23)NC(=O)[C@@H]2CC[C@@H](O)CN2C(=O)[C@H](Cc2ccncc2)NC1=O [SEQ ID NO. 129] (cyclo([4Pal][Pip(5R-OH)][Trp(1-CH2COOH)][dHyp](Carboxymethyl)N[X30][Trp(7-CN)][αMeS][Phe(4-CONH2)][Phe(4-CONH2)][Sar][Trp(βS-Me,7-OMe)][X1][Nle])) | 8.51 | 9.32
CCCC[C@@H]1NC(=O)[C@@H]2CC[C@@H](C2)NC(=O)[C@H]([C@@H](C)c2c[nH]c3c(OC)cccc23)NC(=O)CN(C)C(=O)[C@H](Cc2ccc(OCC(=O)O)cc2)NC(=O)[C@H](Cc2ccc(S(N)(=O)=O)cc2)NC(=O)[C@](C)(CO)NC(=O)[C@H](Cc2c[nH]c3c(C#N)cccc23)NC(=O)[C@H](Cc2ccc(OCC(=O)O)cc2)NC(=O)[C@H](CC(N)=O)NC(=O)[C@H]2C[C@H](O)CN2C(=O)[C@H](Cc2c[nH]c3ccccc23)NC(=O)[C@@H]2CC[C@@H](O)CN2C(=O)[C@H](Cc2ccncc2)NC1=O [SEQ ID NO. 135] (cyclo([4Pal][Pip(5R-OH)]W[dHyp]NY(Carboxymethyl)[Trp(7-CN)][αMeS][Phe(4-SO2NH2)]Y(Carboxymethyl)[Sar][Trp(βS-Me,7-OMe)][X1][Nle])) | 9.40 | 10.15
CCCC[C@@H]1NC(=O)[C@@H]2CC[C@@H](C2)NC(=O)[C@H]([C@@H](C)c2c[nH]c3c(OC)cccc23)NC(=O)CN(C)C(=O)[C@H](Cc2ccc(C(N)=O)cc2)NC(=O)[C@H](Cc2ccc(S(N)(=O)=O)cc2)NC(=O)[C@](C)(CO)NC(=O)[C@H](Cc2c[nH]c3c(C#N)cccc23)NC(=O)[C@H](Cc2ccc(C(=O)O)cc2)NC(=O)[C@H](CC(N)=O)NC(=O)[C@H]2C[C@H](OCC[N+](C)(C)C)CN2C(=O)[C@H](Cc2cn(CC(=O)O)c3ccccc23)NC(=O)[C@@H]2CC[C@@H](O)CN2C(=O)[C@H](Cc2ccncc2)NC1=O [SEQ ID NO. 136] (cyclo([4Pal][Pip(5R-OH)][Trp(1-CH2COOH)][dHyp](Ethyl(2-NMe3+))N[Phe(4-COOH)][Trp(7-CN)][αMeS][Phe(4-SO2NH2)][Phe(4-CONH2)][Sar][Trp(βS-Me,7-OMe)][X1][Nle])) | 9.40 | 10.15
CCCC[C@@H]1NC(=O)[C@@H]2CC[C@@H](C2)NC(=O)[C@H]([C@@H](C)c2c[nH]c3c(OC)cccc23)NC(=O)CN(C)C(=O)[C@H](Cc2ccc(O)cc2)NC(=O)[C@H](Cc2ccc(C(N)=O)cc2)NC(=O)[C@](C)(CO)NC(=O)[C@H](Cc2c[nH]c3c(Cl)cccc23)NC(=O)[C@H](Cc2ccc(OCCN)cc2)NC(=O)[C@H](CC(N)=O)NC(=O)[C@H](CCC(=O)O)N(C)C(=O)[C@H](Cc2c[nH]c3ccccc23)NC(=O)[C@@H]2CC[C@@H](O)CN2C(=O)[C@H](Cc2ccncc2)NC1=O [SEQ ID NO. 145] (cyclo([4Pal][Pip(5R-OH)]W[NMeE]N[AEF][Trp(7-Cl)][αMeS][Phe(4-CONH2)]Y[Sar][Trp(βS-Me,7-OMe)][X1][Nle])) | 9.10 | 9.74
CCCC[C@@H]1NC(=O)[C@@H]2CC[C@@H](C2)NC(=O)[C@H]([C@@H](C)c2c[nH]c3c(OC)cccc23)NC(=O)CN(C)C(=O)[C@H](Cc2ccc(C(N)=O)cc2)NC(=O)[C@H](Cc2ccc(C(N)=O)cc2)NC(=O)[C@](C)(CO)NC(=O)[C@H](Cc2c[nH]c3c(C#N)cccc23)NC(=O)[C@H](Cc2ccc(C(=O)O)cc2)NC(=O)[C@H](CC(N)=O)NC(=O)[C@H](C)N(CCC(N)=O)C(=O)[C@H](Cc2c[nH]c3ncccc23)NC(=O)[C@@H]2CC[C@@H](O)CN2C(=O)[C@H](Cc2ccncc2)NC1=O [SEQ ID NO. 147] (cyclo([4Pal][Pip(5R-OH)][Trp(7-aza)][X52]N[Phe(4-COOH)][Trp(7-CN)][αMeS][Phe(4-CONH2)][Phe(4-CONH2)][Sar][Trp(βS-Me,7-OMe)][X1][Nle])) | 8.85 | 9.68
